From US20170065564A1, “BIS-CYCLIC GUANIDINE COMPOUND COMPOSITIONS, METHODS OF USE AND TREATMENT THEREOF” (University of South Florida, priority 2014, published 2017)
≈ marks a conversion by molar mass, not a printed value.

What was measured:
Enterococcus faecium [1] = test: MIC micro broth dilution assay; format: cell-based; conditions: for MIC: Enterococcus faecium
Method in brief: (§1)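 Multidrug-resistant clinical ESKAPE isolates were grown overnight (Gram-positives in TSB, Gram-negatives in LB), diluted 1:1,000 and exposed to decreasing compound concentrations in DMF (≤2.0% DMF).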

Enterobacter cloacae [2] = test: MIC micro broth dilution assay; format: cell-based; conditions: for MIC: Enterobacter cloacae
Method in brief: as §1

A. baumannii = test: Resistance serial passage assay; format: cell-based, Acinetobacter baumannii; conditions: 8 passages, concentration doubled each day
Description: (§2) ESKAPE pathogens were grown overnight in liquid media at 37° C. These cultures were then diluted 1:100 in fresh media, and seeded into a 96-well plate. Lead bis-cyclic guanidines or control agents were added to respective wells at half MIC concentrations. Plates were then incubated for 24 hours at 37° C., with bacteria removed from these cultures on the following day, to inoculate fresh media (1:100 dilution) containing compounds at a 2-fold higher concentrations. These were then grown overnight, and the procedure repeated for a total of eight days. […] Each experiment was performed in triplicate, yielding identical results.

S. aureus = test: Resistance serial passage assay; format: cell-based, Staphylococcus aureus; conditions: 8 passages, concentration doubled each day
Description: as §2

K. pneumoniae = test: Resistance serial passage assay; format: cell-based, Klebsiella pneumoniae; conditions: 8 passages, concentration doubled each day
Description: as §2

Acinetobacter baumannii = test: Minimal bactericidal concentration (MBC) assay; format: cell-based; conditions: Acinetobacter baumannii, purified compound; read-out: MBC90
Description: (§3) Briefly, compound was washed by centrifugation and serial dilution, before plating on Tryptic Soy Agar (TSA). Plates were incubated for 24 hours at 37° C. and cell viability assessed by determining CFU/ml at each concentration, for every compound. Percent recovery was then determined compared to CFU/ml from no drug controls. All concentrations and controls were tested using three biological replicates, alongside two technical replicates for each data point.

Klebsiella pneumoniae = test: Minimal bactericidal concentration (MBC) assay; format: cell-based; conditions: Klebsiella pneumoniae, purified compound; read-out: MBC90
Description: as §3

Enterococcus faecium [3] = test: Minimal bactericidal concentration (MBC) assay; format: cell-based; conditions: Enterococcus faecium, purified compound; read-out: MBC90
Description: as §3

Staphylococcus aureus [4] = test: Minimal bactericidal concentration (MBC) assay; format: cell-based; conditions: Staphylococcus aureus, purified compound; read-out: MBC90
Description: as §3

Pseudomonas aeruginosa = test: Minimal bactericidal concentration (MBC) assay; format: cell-based; conditions: Pseudomonas aeruginosa; purified compound; read-out: MBC90
Description: as §3

Enterobacter cloacae [5] = test: Minimal bactericidal concentration (MBC) assay; format: cell-based; conditions: Enterobacter cloacae; purified compound; read-out: MBC90
Description: as §3

Staphylococcus aureus [6] = test: MIC micro broth dilution assay; format: cell-based; conditions: for MIC: Staphylococcus aureus
Method in brief: as §1

[7] = system: Enterococcus faecium biofilm; test: Minimum biofilm eradication concentration (MBEC) assay; format: cell-based; conditions: 24 h biofilm, purified compound
Description: (§4) The minimum biofilm eradication concentration (MBEC) was determined in 96-well microtiter plates as follows. Broth cultures of ESKAPE strains were grown using the conditions described above. Biofilms for each of the ESKAPE pathogens were generated from these as we have previously described for S. aureus, however human serum was not used for non-staphylococcal organisms.^44 46 For all organisms, biofilms were developed by standardizing an overnight culture into fresh media to an OD600 of 0.5 and adding 150 μl into each well of a 96-well microtiter plate. […] These cultures were incubated at 37° C. overnight alongside no drug controls. After 24 hours, the media was removed from wells and the biofilm resuspended in phosphate buffered saline (PBS). Cultures were mixed by vigorous pipetting, before being serially diluted in PBS, and plated in duplicate on relevant agar. Plates were incubated at 37° C. for 24 hours, and CFUs determined by enumeration. Each analysis was performed using three technical replicates, and antibiofilm activity was determined by comparing treated to untreated samples.

[8] = system: Staphylococcus aureus biofilm; test: as above; format: cell-based; conditions: 24 h biofilm, purified compound
Description: as §4

[9] = system: Klebsiella pneumoniae biofilm; test: as above; format: cell-based; conditions: 24 h biofilm, purified compound
Description: as §4

[10] = system: Acinetobacter baumannii biofilm; test: as above; format: cell-based; conditions: 24 h biofilm, purified compound
Description: as §4

[11] = system: Enterobacter cloacae biofilm; test: as above; format: cell-based; conditions: 24 h biofilm, purified compound
Description: as §4

[12] = system: Pseudomonas aeruginosa biofilm; test: as above; format: cell-based; conditions: 24 h biofilm, purified compound
Description: as §4

[13] = panel of E. cloacae clinical isolates

For `CCCC[C@H]1CN(CCCC[C@H]2CNC(=N)N2CCc2cccc(C(F)(F)F)c2)C(=N)N1CCCCC1CCCCC1` [Compound 2, (S)-4-butyl-3-(4-cyclohexylbutyl)-1-(4-((S)-2-imino-3-(3-(trifluoromethyl)phenethyl)imidazolidin-4-yl)butyl)imidazolidin-2-imine], the “stacked score activity, 100/MIC, E” value (Enterococcus faecium [1]; E. faecium) was 50, the MIC (Enterococcus faecium [1]; E. faecium isolate 1406) was 2 µM (≈ 1.18 µg/mL) and the MIC (Enterococcus faecium [1]; E. faecium isolate 1407) was 2 µM (≈ 1.18 µg/mL). The MIC (Enterococcus faecium [1]; E. faecium isolate 1432) was 2 µM (≈ 1.18 µg/mL), the MIC (Enterococcus faecium [1]; E. faecium isolate 1438) was 2 µM (≈ 1.18 µg/mL) and the MIC (Enterococcus faecium [1]; E. faecium isolate 1439) was 2 µM (≈ 1.18 µg/mL). The MIC (Enterococcus faecium [1]; E. faecium isolate 1443) was 2 µM (≈ 1.18 µg/mL), the MIC (Enterococcus faecium [1]; E. faecium isolate 1444) was 2 µM (≈ 1.18 µg/mL) and the MIC (Enterococcus faecium [1]; E. faecium isolate 1449) was 2 µM (≈ 1.18 µg/mL). For the same compound, the MIC (Enterococcus faecium [1]; E. faecium isolate 1450) was 2 µM (≈ 1.18 µg/mL), the MIC (Enterococcus faecium [1]; E. faecium isolate 1451) was 2 µM (≈ 1.18 µg/mL) and the MIC (Enterococcus faecium [1]; purified compound, Table 1) was 1.52 µM (≈ 0.898 µg/mL). The “stacked score activity, 100/MIC, E” value (Enterobacter cloacae [2]; E. cloacae) was 20, the MIC (Enterobacter cloacae [2]; E. cloacae isolate 1404) was 2 µM (≈ 1.18 µg/mL) and the MIC (Enterobacter cloacae [2]; E. cloacae isolate 1405) was 2 µM (≈ 1.18 µg/mL). The MIC (Enterobacter cloacae [2]; E. cloacae isolate 1430) was 2 µM (≈ 1.18 µg/mL), the MIC (Enterobacter cloacae [2]; E. cloacae isolate 1431) was 2 µM (≈ 1.18 µg/mL) and the MIC (Enterobacter cloacae [2]; E. cloacae isolate 1445) was 2 µM (≈ 1.18 µg/mL). The MIC (Enterobacter cloacae [2]; E. cloacae isolate 1446) was 7 µM (≈ 4.14 µg/mL), the MIC (Enterobacter cloacae [2]; E. cloacae isolate 1447) was 3 µM (≈ 1.77 µg/mL) and the MIC (Enterobacter cloacae [2]; E. cloacae isolate 1448) was 3 µM (≈ 1.77 µg/mL). It also gave an MIC (Enterobacter cloacae [2]; E. cloacae isolate 1454) of 2 µM (≈ 1.18 µg/mL), an MIC (Enterobacter cloacae [2]; E. cloacae isolate 1455) of 2 µM (≈ 1.18 µg/mL) and an MIC (Enterobacter cloacae [2]; purified compound, Table 1) of 1.52 µM (≈ 0.898 µg/mL). For the same compound, the “concentration inhibiting 70% of strains” value (Enterobacter cloacae [2]; [13]) was 2 µM, the “concentration inhibiting 90% of isolates” value (Enterobacter cloacae [2]; [13]) was 5 µM and the “increase in MIC after serial passage” value (A. baumannii) was 8 fold. For the same compound, the “increase in MIC after serial passage” value (S. aureus) was “two-fold”, the “increase in MIC after serial passage” value (K. pneumoniae) was 8 fold and the MBC (Acinetobacter baumannii) was 2.83 µM (≈ 1.67 µg/mL). It also gave an MBC (Klebsiella pneumoniae) of 3.98 µM (≈ 2.35 µg/mL), an MBC (Enterococcus faecium [3]) of 1.66 µM (≈ 0.981 µg/mL) and an MBC (Staphylococcus aureus [4]) of 2.03 µM (≈ 1.2 µg/mL). For the same compound, the MBC (Pseudomonas aeruginosa) was 2.32 µM (≈ 1.37 µg/mL), the MBC (Enterobacter cloacae [5]) was 4.15 µM (≈ 2.45 µg/mL) and the “stacked score activity, 100/MIC, S” value (Staphylococcus aureus [6]; S. aureus) was 33. For the same compound, the MIC (Staphylococcus aureus [6]; S. aureus isolate 542) was 2 µM (≈ 1.18 µg/mL), the MIC (Staphylococcus aureus [6]; S. aureus isolate 626) was 2 µM (≈ 1.18 µg/mL) and the MIC (Staphylococcus aureus [6]; S. aureus isolate 635) was 2 µM (≈ 1.18 µg/mL). It also gave an MIC (Staphylococcus aureus [6]; S. aureus isolate 648) of 2 µM (≈ 1.18 µg/mL), an MIC (Staphylococcus aureus [6]; S. aureus isolate 690) of 2 µM (≈ 1.18 µg/mL) and an MIC (Staphylococcus aureus [6]; S. aureus isolate 693) of 2 µM (≈ 1.18 µg/mL). It also gave an MIC (Staphylococcus aureus [6]; S. aureus isolate 715) of 2 µM (≈ 1.18 µg/mL), an MIC (Staphylococcus aureus [6]; S. aureus isolate 728) of 2 µM (≈ 1.18 µg/mL) and an MIC (Staphylococcus aureus [6]; S. aureus isolate 834) of 2 µM (≈ 1.18 µg/mL). For the same compound, the MIC (Staphylococcus aureus [6]; S. aureus isolate 1043) was 2 µM (≈ 1.18 µg/mL), the MIC (Staphylococcus aureus [6]; S. aureus isolate 1049) was 2 µM (≈ 1.18 µg/mL) and the MIC (Staphylococcus aureus [6]; purified compound, Table 1) was 1.52 µM (≈ 0.898 µg/mL). For the same compound, the MBEC50 [7] was 29.20 µM, the MBEC50 [8] was 2.18 µM and the MBEC50 [9] was 4.65 µM. It also gave an MBEC50 [10] of 15.84 µM, an MBEC50 [11] of 13.44 µM and an MBEC50 [12] of 30.62 µM.
